# Assay results: patent publication US11945847B2, “Optogenetic induction of neurodegenerative disease pathologies” (UNIVERSITY OF PITTSBURGH—OF THE COMMONWEALTH SYSTEM OF …, priority 2017, dated 2024)
# B1: CRY2OLIG-mCh (other)
# chain: MKMDKKTIVWFRRDLRIEDNPALAAAAHEGSVFPVFIWCPEEEGQFYPGRASRWWMKQSLAHLSQSLKALGSDLTLIKTHNTISAILDCIRVTGATKVVFNHLYDPVSLVRDHTVKEKLVERGISVQSYNGDLLYEPWEIYCEKGKPFTSFNSYWKKCLDMSIESVMLPPPWRLMPITAAAEAIWACSIEELGLENEAEKPSNALLTRAWSPGWSNADKLLNEFIEKQLIDYAKNSKKVVGNSTSLLSPYLHFGEISVRHVFQCARMKQIIWARDKNSEGEESADLFLRGIGLREYSRYICFNFPFTHEQSLLSHLRFFPWDADVDKFKAWRQGRTGYPLVDAGMRELWATGWMHNRIRVIVSSFAVKFLLLPWKWGMKYFWDTLLDADLECDILGWQYISGSIPDGHELDRLDNPALQGAKYDPEGEYIRQWLPELARLPTEWIHHPWDAPLTVLKASGVELGTNYAKPIVDIDTARELLAKAISRTRGAQIMIGAA
# notes: also called Cry2-mCh; Cry2 photoreceptor-only control; not shown: mCherry reporter and any linker
# B2: CRY2OLIG: Cryptochrome 2 PHR Domain with E490G substitution (protein)
# chain: B1 chain
# B3: Cry2-mCh: As a control, CRY2OLIG alone fused to mCherry (protein)
# chain: B1 chain
# modifications: left off: large carriers
# notes: As a control, CRY2OLIG alone fused to mCherry
# B4: NcVVDY50W: NcVivid Y50W substitution (protein)
# chain: HTLYAPGGYDIMGWLIQIMNRPNPQVELGPVDTSCALILCDLKQKDTPIVYASEAFLYMTGYSNAEVLGRNCRFLQSPDGMVKPKSTRKYVDSNTINTMRKAIDRNAEVQVEVVNFKKNGQRFVNFLTMIPVRDETGEYRYSMGFQCETE
# Assays:
# [1] = tested on: live cells; test: Blue light-induced clustering/aggregation of CRY2OLIG constructs visualized in live cells; format: cell-based; details: specific blue light stimulation paradigms
# From the text: FIGS. 2A-2B describe methods to generate neuropathological aggregate proteins containing an LCD/IDR/Prion-like domain with light using TDP-43 and CRY2OLIG as an example. Various protein arrangements and blue light exposure paradigms were developed to induce protein aggregation of proteins and protein fragments containing LCD/IDR/prion-like domains, promote the mislocalization of nuclear proteins and recapitulate the neuropathology of neurodegenerative diseases. TDP-43 is a predominantly nuclear protein that contains an IDR/IDD/prion-like domain, and is mislocalized and aggregated in ALS, FTD, and some AD patients, as an example. DNA sequences were engineered to generate amino acid sequences that encode for a the CRY2OLIG protein that clusters when exposed to blue light generated a fusion protein either the entire TDP-43 protein (cry2-TDP43-mCh) or just the low complexity domain (LCD/IDD/prion-like domain), which makes TDP-43 aggregation prone (Cry2-274-mCh). As a control, CRY2OLIG alone was used. All constructs were fused to a fluorescent protein called mCherry (mCh) to visualize the proteins in live cells.
# [2] = tested on: HEK cells; test: Light-induced oligomerization of optogenetic TDP-43 fragments, live confocal microscopy; format: cell-based; details: for oligomerization after a brief pulse of blue light: 8 sec, live confocal microscopy; for oligomerization after a brief pulse of blue light / persistence of oligomers: 10% laser power, 488 nm; for persistence of oligomers: after brief pulse 8 sec
# From the text: (§1) FIGS. 4A-4E show light-induced aggregation of low-complexity domain proteins. Optogenetic TDP-43 fragments containing the low-complexity domain (LCD) undergo progressive aggregation with light stimulation. […] (FIGS. 4C-4D) Optogenetic LCD fragments also continue to aggregate following brief light pulses, growing in size over time. (FIG. 4E) Persistent blue light stimulation of the TDP-43 LCD forms intracellular aggregates in the cells.
# Beyond protein aggregation, this system creates light-induced pathologies that mimic key pathological features found in patients making it unique compared to overexpression systems. The TDP-43 protein, which contains an LCD, was combined with the CRY2OLIG photoreceptor domain which clusters when exposed to blue light and becomes insoluble and aggregated with persistent light treatment. Fusion proteins of the full length and partial LCD sequence were generated to recapitulate human neurodegenerative disease pathology, including the cytoplasmic mislocalization of nuclear proteins that occurs in patients with ALS and FTD. This system could induce neurodegenerative disease protein aggregates in live HEK cells by exposing them to various blue light stimuli paradigms (FIGS. 4-5). In addition, biochemical hallmarks of ALS, FTD, and AD (FIG. 7) were produced showing that the cell is responding to the light-induced aggregates as observed in patient CNS despite the addition of these tags. […] Employing this DNA arrangement and light stimulation system as an example, cytoplasmic TDP-43 aggregates were obtained that are also ubiquitinylated, cleaved, and hyperphosphorylated as observed in ALS, FTD, and AD patients. TDP-43 pathology is also found in AD as well as Chronic Traumatic Encephalopathy (CTE) thus highlighting the potential disease relevance of this work. In addition, a protein arrangement and light stimulation paradigm was developed to induce the aggregation of α-synuclein (FIG. 6), which is found in the CNS of patients diagnosed with Parkinson's Disease and Lewy Body Dementia. Methods were also developed to induce intracellular aggregation of Tau protein using both the Cry-PHR and LOV photoreceptors (FIG. 7) and persistent blue light stimulation. These tau tangles are pathological hallmarks of AD, FTD and CTE in HEK cells. […] Finally, it was shown that this method can be utilized to seed aggregations, as aggregates of TDP-43 formed using this method recruit endogenous TDP-43 to seed the pathogenic neuropathology (FIGS. 5F, 5G).
# [3] = tested on: HEK293 cells; test: Fluorescence recovery after photobleaching (FRAP) of light-induced TDP-43 inclusions; format: cell-based; details: persistent / chronic blue light-induced inclusions
# From the text: as §1
# FIGS. 5A-5K show chronic blue light stimulation induces optoTDP43 mislocalization and aggregation that recapitulates pathological hallmarks seen in patient CNS tissue. HEK293 cells expressing optoTDP43-mCh were exposed to 488 nm LED stimulation or darkness for up to 36 hours. […] (FIG. 5E) Fluorescence recovery after photobleaching (FRAP) imaging was performed to assess dynamicity of optoTDP43 structures. […] (FIG. 5F) Detergent-solubility of optoTDP43 structures was assessed by subcellular fractionation to confirm aggregated state of light-induced optoTDP43 granules. […] Human ReN neurons expressing TDP43-mCh or optoTDP43 were exposed to chronic blue light stimulation and viability was simultaneously monitored by longitudinal imaging.
# [4] = tested on: HEK cells; test: Acute blue light stimulation: pathological aggregate formation and toxicity; format: cell-based
# From the text: FIG. 10B is a schematic of a screening pipeline to use the induction of neurodegenerative disease pathology to identify therapeutic compounds that rescue toxicity and prevent or remove the formation of the induced neurodegenerative disease pathology.
# [5] = Aggregation potential of CRY2 or VVD fusion proteins by protein arrangement; format: cell-based; details: protein arrangement and light stimulation paradigm
# From the text: FIGS. 9A-9B show the aggregation potential of CRY2 or VVD fusion proteins based on the protein arrangement and light stimulation paradigm combination. Studies indicate that the ability of Cry2 or VVD photoreceptor to stimulate clustering and activation are dependent on the protein arrangement as well as the light stimulation paradigm.
# [6] = tested on: HEK293 cells; test: Chronic blue light stimulation: optoTDP43 mislocalization and aggregation; format: cell-based
# Description: (§2) FIGS. 5A-5K show chronic blue light stimulation induces optoTDP43 mislocalization and aggregation that recapitulates pathological hallmarks seen in patient CNS tissue. HEK293 cells expressing optoTDP43-mCh were exposed to 488 nm LED stimulation or darkness for up to 36 hours. […] (FIG. 5E) Fluorescence recovery after photobleaching (FRAP) imaging was performed to assess dynamicity of optoTDP43 structures. […] (FIG. 5F) Detergent-solubility of optoTDP43 structures was assessed by subcellular fractionation to confirm aggregated state of light-induced optoTDP43 granules. […] In addition to increased insolubility of exogenous, full-length optoTDP43 (top band), chronic blue light exposure also results in recruitment of aberrant optoTDP43 cleavage products (middle bands), as well as endogenous full-length TDP-43 and disease-relevant cleavage products (bottom bands), to the detergent-insoluble, urea-soluble fraction of cell lysates as is observed in patient tissue. (FIG. 5G) To confirm direct recruitment of non-optogenetic TDP-43 species to exogenous light-induced optoTDP43 inclusions, EGFP-tagged TDP-43 was co-expressed with optoTDP43 or the Cry2 photoreceptor-only control. […] Human ReN neurons expressing TDP43-mCh or optoTDP43 were exposed to chronic blue light stimulation and viability was simultaneously monitored by longitudinal imaging.
# [7] = tested on: HEK293 cells; test: Detergent-solubility by subcellular fractionation; format: cell-based; details: with and without light treatment; chronic blue light stimulation
# Description: as §2
# [8] = target: T1, EGFP-tagged TDP-43 (Homo sapiens, UniProt Q13148); test: Recruitment of co-expressed EGFP-tagged TDP-43 to light-induced inclusions (co-localization); format: cell-based; details: chronic blue light stimulation
# T1 construct: expressed in transfected cells
# Description: as §2
# [9] = tested on: HEK293 cells; test: Immunofluorescence analysis of pathological hallmarks of light-induced optoTDP43 aggregates; format: cell-based
# Description: FIGS. 5A-5K show chronic blue light stimulation induces optoTDP43 mislocalization and aggregation that recapitulates pathological hallmarks seen in patient CNS tissue. HEK293 cells expressing optoTDP43-mCh were exposed to 488 nm LED stimulation or darkness for up to 36 hours. […] (FIG. 5E) Fluorescence recovery after photobleaching (FRAP) imaging was performed to assess dynamicity of optoTDP43 structures. […] (FIG. 5F) Detergent-solubility of optoTDP43 structures was assessed by subcellular fractionation to confirm aggregated state of light-induced optoTDP43 granules. […] In addition to increased insolubility of exogenous, full-length optoTDP43 (top band), chronic blue light exposure also results in recruitment of aberrant optoTDP43 cleavage products (middle bands), as well as endogenous full-length TDP-43 and disease-relevant cleavage products (bottom bands), to the detergent-insoluble, urea-soluble fraction of cell lysates as is observed in patient tissue. (FIG. 5G) To confirm direct recruitment of non-optogenetic TDP-43 species to exogenous light-induced optoTDP43 inclusions, EGFP-tagged TDP-43 was co-expressed with optoTDP43 or the Cry2 photoreceptor-only control. […] (FIG. 5H-5J) Immunofluorescence analysis was performed on light-induced optoTDP43 aggregates to confirm pathological hallmarks seen in patient tissue. optoTDP43 inclusions appear to be (FIG. 5H) ubiquitinated, (FIG. 5I) hyperphosphorylated, and (FIG. 5J) p62-positive, all of which have been observed with TDP-43 inclusions in patient CNS. (FIG. 5K) Automated high-throughput confocal microscopy was performed to assess the neurotoxicity of light-induced optoTDP43 inclusions. Human ReN neurons expressing TDP43-mCh or optoTDP43 were exposed to chronic blue light stimulation and viability was simultaneously monitored by longitudinal imaging.
# [10] = tested on: Human ReN neurons; test: Neurotoxicity by automated high-throughput confocal longitudinal imaging; format: cell-based; details: chronic blue light stimulation
# Description: as §2
# [11] = target: the molecule itself; test: self-association in live cells on blue light, mCherry fluorescence
# [12] = cited from earlier work
# T1 sequence (Q13148 whole entry): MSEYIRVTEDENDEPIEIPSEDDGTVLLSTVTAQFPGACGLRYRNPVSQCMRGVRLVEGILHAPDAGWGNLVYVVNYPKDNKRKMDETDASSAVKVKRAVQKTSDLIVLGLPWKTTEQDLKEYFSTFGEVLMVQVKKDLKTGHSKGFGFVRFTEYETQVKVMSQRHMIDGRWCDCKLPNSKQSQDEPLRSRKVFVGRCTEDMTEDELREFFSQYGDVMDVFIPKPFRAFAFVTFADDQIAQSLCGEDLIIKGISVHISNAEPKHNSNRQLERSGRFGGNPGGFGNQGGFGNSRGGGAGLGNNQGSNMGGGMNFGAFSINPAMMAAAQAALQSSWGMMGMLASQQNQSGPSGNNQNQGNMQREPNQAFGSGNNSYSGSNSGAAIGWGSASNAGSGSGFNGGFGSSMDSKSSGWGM
molecule,measurement,setting,value
optoLCD: CRY2OLIG fused to just the low complexity domain of TDP-43 and mCherry,clustering / aggregation with blue light stimulation (reversibility),[1],forms irreversible aggregates
same,oligomerization after a brief pulse of blue light,[2],rapidly oligomerize
same,persistence of oligomers,[2],persist much longer than the Cry2 photoreceptor alone
same,fluorescence recovery after photobleaching (FRAP),[3],do not recover from FRAP
same,time to formation of pathological aggregates,[4]; acute stimulation,≤ 1 hour
same,toxicity of aggregates,[4]; aggregates grow in size over time,become toxic over time
"TDP-43-CRY2OLIG-mCh: full length TDP-43, Cry2olig, mCherry reporter arrangement",ability to aggregate,[5],mislocalizes but does not exhibit the ability to aggregate
optoTDP43: CRY2OLIG fused to the entire TDP-43 protein and mCherry,clustering / aggregation with blue light stimulation (reversibility),[1],forms irreversible aggregates
same,fluorescence recovery after photobleaching (FRAP),[3],Lack of fluorescence recovery
same,localization,"[6]; 488 nm LED stimulation up to 36 hours, confirmed by nuclear/cytoplasmic fractionation",gradual cytoplasmic mislocalization
same,aggregation,[6]; simultaneous chronic blue light exposure and high-throughput automated confocal microscopy,increases in propensity with increasing light exposure
same,detergent-solubility,[7],drastic shift to the insoluble fraction
same,co-localization with EGFP-TDP43,[8],strong co-localization
same,p62 staining of inclusions,[9],p62-positive
same,phosphorylation of inclusions,[9],hyperphosphorylated
same,ubiquitination of inclusions,[9],ubiquitinated
same,neuron survival / viability,[10],significantly decreased viability over time
optoRRM2+LCD: Optogenetic C-terminal fragment of TDP-43 containing RRM2 and the low-complexity domain,oligomerization after a brief pulse of blue light,[2],rapidly oligomerize
same,persistence of oligomers,[2],persist much longer than the Cry2 photoreceptor alone
B1,binding result,[11],binds
B2,efficiency of clustering upon blue light stimulation,[12]; E490G mutation versus endogenous sequence,slightly increased efficiency of clustering
B3,clustering / aggregation with blue light stimulation (reversibility),[1],reversibly clusters
same,disassembly,[2]; after brief pulse of blue light,~10 min
same,co-localization with EGFP-TDP43,[8],no co-localization
B4,dissipation from the dimerized state,[12]; Y50W change,slower ability to dissipate from the dimerized state
